From patent US7598244B2, “[1,2,4]triazolo[1,5,a]pyrimidin-2-ylurea derivative and use thereof” (Nippon Kayaku Kabushiki Kaisha, priority 2003, dated 2009)

These molecules were tested on MHC class I molecules of T1 cells (human lymphoma cell line 174×CEM.) (assay: Effect on expression of MHC class I from T1 cells (flow cytometry, MFI)). Settings: 3 days culture.
Assay type: cell-based
Summary of the method: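 EC20 is the compound level that lowers MHC class I MFI by 20% relative to compound-free cultures. Read-out was flow cytometry after FITC W6/32 staining.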
In the case of `CC(C)CCC[C@H](C)NC(=O)Nc1nc2nccc(-c3cccs3)n2n1` [Example 246], the “EC20 (concentration necessary for suppressing 20% of the expression level of MHC class I molecules)” value was 50 nM.
With `COc1ccc(-c2ccnc3nc(NC(=O)NCc4cc(OC)c(OC)c(OC)c4)nn23)cc1` [Example 247] the “EC20 (concentration necessary for suppressing 20% of the expression level of MHC class I molecules)” value was 37 nM.
In the case of `COc1cccc([C@H](C)NC(=O)Nc2nc3nccc(-c4ccc(OCCCN5CCOCC5)cc4)n3n2)c1` [Example 248], the “EC20 (concentration necessary for suppressing 20% of the expression level of MHC class I molecules)” value was 14 nM.
In the case of `COc1cccc([C@H](C)NC(=O)Nc2nc3nccc(-c4cccc(OCCCN5CCOCC5)c4)n3n2)c1` [Example 249], the “EC20 (concentration necessary for suppressing 20% of the expression level of MHC class I molecules)” value was 70 nM.
`COCCOc1ccc(-c2ccnc3nc(NC(=O)N[C@@H](C)c4cccc(OC)c4)nn23)cc1OCCOC` [Example 251] was tested, and the “EC20 (concentration necessary for suppressing 20% of the expression level of MHC class I molecules)” value was 60 nM.
`COCCOc1ccc(-c2ccnc3nc(NC(=O)N[C@@H](C)CCCC(C)C)nn23)cc1OCCOC` [Example 252] was tested, and the “EC20 (concentration necessary for suppressing 20% of the expression level of MHC class I molecules)” value was 50 nM.
In the case of `COc1cccc([C@H](C)NC(=O)Nc2nc3nccc(-c4cccc(OCC(=O)N5CCOCC5)c4)n3n2)c1` [Example 253], the “EC20 (concentration necessary for suppressing 20% of the expression level of MHC class I molecules)” value was 270 nM.
`CC(C)CCC[C@H](C)NC(=O)Nc1nc2nccc(-c3ccc(OCc4ccccc4)cc3)n2n1` [Example 254] was tested, and the “EC20 (concentration necessary for suppressing 20% of the expression level of MHC class I molecules)” value was 230 nM.
For `CC(C)CCC[C@H](C)NC(=O)Nc1nc2nccc(-c3ccc(O)cc3)n2n1` [Example 255, (S)-1-(1,5-dimethylhexyl)-3-[7-(4-hydroxyphenyl)-[1,2,4]triazolo[1,5-a]pyrimidin-2-yl]urea], the “EC20 (concentration necessary for suppressing 20% of the expression level of MHC class I molecules)” value was 5.6 nM.
In the case of `CC(C)CCC[C@H](C)NC(=O)Nc1nc2nccc(-c3cccc(OCc4ccccc4)c3)n2n1` [Example 256], the “EC20 (concentration necessary for suppressing 20% of the expression level of MHC class I molecules)” value was 550 nM.
`CC(C)CCC[C@H](C)NC(=O)Nc1nc2nccc(-c3cccc(O)c3)n2n1` [Example 257] was tested, and the “EC20 (concentration necessary for suppressing 20% of the expression level of MHC class I molecules)” value was 30 nM.
`CC(C)CCC[C@H](C)NC(=O)Nc1nc2nccc(-c3ccc(OCCN4CCOCC4)cc3)n2n1.Cl` [Example 258, (S)-1-(1,5-dimethylhexyl)-3-{7-[4-(2-morpholin-4-ylethoxy)phenyl]-[1,2,4]triazolo[1,5-a]pyrimidin-2-yl}urea hydrochloride] was tested, and the “EC20 (concentration necessary for suppressing 20% of the expression level of MHC class I molecules)” value was 8.7 nM.
In the case of `CC(C)CCC[C@H](C)NC(=O)Nc1nc2nccc(-c3cccc(OCCN4CCOCC4)c3)n2n1` [Example 259], the “EC20 (concentration necessary for suppressing 20% of the expression level of MHC class I molecules)” value was 60 nM.
With `CC(C)CCC[C@H](C)NC(=O)Nc1nc2nccc(-c3cccc(OCC4CCCO4)c3)n2n1` (stereo partly shown) [Example 260] the “EC20 (concentration necessary for suppressing 20% of the expression level of MHC class I molecules)” value was 60 nM.
In the case of `CC(C)CCC[C@H](C)NC(=O)Nc1nc2nccc(-c3cccc(OCc4cccnc4)c3)n2n1` [Example 261], the “EC20 (concentration necessary for suppressing 20% of the expression level of MHC class I molecules)” value was 80 nM.
For `COCCOc1ccc(-c2ccnc3nc(NC(=O)N[C@@H](C)CCCC(C)C)nn23)cc1` [Example 262, (S)-1-(1,5-dimethylhexyl)-3-{7-[4-(2-methoxyethoxy)phenyl]-[1,2,4]triazolo[1,5-a]pyrimidin-2-yl}urea], the “EC20 (concentration necessary for suppressing 20% of the expression level of MHC class I molecules)” value was 30 nM.
For `COCCOCCOCCOc1ccc(-c2ccnc3nc(NC(=O)N[C@@H](C)CCCC(C)C)nn23)cc1` [Example 263], the “EC20 (concentration necessary for suppressing 20% of the expression level of MHC class I molecules)” value was 7.9 nM.
For `COCCOc1cccc(-c2ccnc3nc(NC(=O)N[C@@H](C)CCCC(C)C)nn23)c1` [Example 264], the “EC20 (concentration necessary for suppressing 20% of the expression level of MHC class I molecules)” value was 70 nM.
`COCCOCCOCCOc1cccc(-c2ccnc3nc(NC(=O)N[C@@H](C)CCCC(C)C)nn23)c1` [Example 265] was tested, and the “EC20 (concentration necessary for suppressing 20% of the expression level of MHC class I molecules)” value was 110 nM.
`C[C@H](NC(=O)Nc1nc2nccc(-c3ccc(O)cc3)n2n1)c1cccc(O)c1` [Example 266] was tested, and the “EC20 (concentration necessary for suppressing 20% of the expression level of MHC class I molecules)” value was 200 nM.
With `C[C@H](NC(=O)Nc1nc2nccc(-c3cccc(O)c3)n2n1)c1cccc(O)c1` [Example 267] the “EC20 (concentration necessary for suppressing 20% of the expression level of MHC class I molecules)” value was 550 nM.
With `COc1cccc([C@H](C)NC(=O)Nc2nc3nccc(-c4ccc(OCCN5CCOCC5)cc4)n3n2)c1` [Example 269] the “EC20 (concentration necessary for suppressing 20% of the expression level of MHC class I molecules)” value was 15 nM.
For `CC(CCCC(C)(C)O)NC(=O)Nc1nc2nccc(-c3cccs3)n2n1` (stereo not shown) [Example 272, 1-(5-hydroxy-1,5-dimethylhexyl)-3-(7-thiophen-2-yl[1,2,4]triazolo[1,5-a]pyrimidin-2-yl)urea], the “EC20 (concentration necessary for suppressing 20% of the expression level of MHC class I molecules)” value was 69 nM.
For `COc1ccc(-c2ccnc3nc(NC(=O)NC(C)CCC(=O)N4CCOCC4)nn23)cc1` (stereo not shown) [Example 273], the “EC20 (concentration necessary for suppressing 20% of the expression level of MHC class I molecules)” value was 600 nM.
With `COc1ccc(-c2ccnc3nc(NC(=O)NC(C)CCCC(=O)N4CCOCC4)nn23)cc1` (stereo not shown) [Example 275] the “EC20 (concentration necessary for suppressing 20% of the expression level of MHC class I molecules)” value was 540 nM.
With `CCOCCCC(C)NC(=O)Nc1nc2nccc(-c3ccc(OC)cc3)n2n1` (stereo not shown) [Example 276] the “EC20 (concentration necessary for suppressing 20% of the expression level of MHC class I molecules)” value was 120 nM.
In the case of `COc1ccc(-c2ccnc3nc(NC(=O)NC(C)CCN(C)C(=O)OC(C)(C)C)nn23)cc1` (stereo not shown) [Example 277], the “EC20 (concentration necessary for suppressing 20% of the expression level of MHC class I molecules)” value was 180 nM.
With `CCOCCC(C)NC(=O)Nc1nc2nccc(-c3cccs3)n2n1` (stereo not shown) [Example 281] the “EC20 (concentration necessary for suppressing 20% of the expression level of MHC class I molecules)” value was 120 nM.
`COc1ccc(-c2ccnc3nc(NC(=O)NC(C)CCCN(C)C(=O)OC(C)(C)C)nn23)cc1` (stereo not shown) [Example 282] was tested, and the “EC20 (concentration necessary for suppressing 20% of the expression level of MHC class I molecules)” value was 58 nM.
For `COc1ccc(-c2ccnc3nc(NC(=O)NC(C)CCCN(C)C(C)=O)nn23)cc1` (stereo not shown) [Example 283], the “EC20 (concentration necessary for suppressing 20% of the expression level of MHC class I molecules)” value was 200 nM.
For `CCCC(C)NC(=O)Nc1nc2nccc(-c3cccs3)n2n1` (stereo not shown) [Example 284], the “EC20 (concentration necessary for suppressing 20% of the expression level of MHC class I molecules)” value was 190 nM.
With `CCCC(C)NC(=O)Nc1nc2nccc(-c3ccc(OC)cc3)n2n1` (stereo not shown) [Example 285] the “EC20 (concentration necessary for suppressing 20% of the expression level of MHC class I molecules)” value was 320 nM.
With `CCCC(C)NC(=O)Nc1nc2nccc(-c3ccc(OCCOC)cc3)n2n1` (stereo not shown) [Example 286] the “EC20 (concentration necessary for suppressing 20% of the expression level of MHC class I molecules)” value was 160 nM.
`CC(CCCC(=O)N1CCOCC1)NC(=O)Nc1nc2nccc(-c3cccs3)n2n1` (stereo not shown) [Example 287] was tested, and the “EC20 (concentration necessary for suppressing 20% of the expression level of MHC class I molecules)” value was 770 nM.
In the case of `COC(C)(C)CCC[C@H](C)NC(=O)Nc1nc2nccc(-c3cccs3)n2n1` [Example 288], the “EC20 (concentration necessary for suppressing 20% of the expression level of MHC class I molecules)” value was 20 nM.
`COCC/C=C/[C@H](C)NC(=O)Nc1nc2nccc(-c3ccc(OC)cc3)n2n1` [Example 289] was tested, and the “EC20 (concentration necessary for suppressing 20% of the expression level of MHC class I molecules)” value was 110 nM.
`COCC/C=C/[C@H](C)NC(=O)Nc1nc2nccc(-c3cccs3)n2n1` [Example 290] was tested, and the “EC20 (concentration necessary for suppressing 20% of the expression level of MHC class I molecules)” value was 340 nM.
`COc1cccc([C@H](C)NC(=O)Nc2nc3nccc(-c4ccc(OC(=O)N5CCC(N6CCCCC6)CC5)cc4)n3n2)c1` [Example 293] was tested, and the “EC20 (concentration necessary for suppressing 20% of the expression level of MHC class I molecules)” value was 90 nM.
For `COc1cc(C(C)NC(=O)Nc2nc3nccc(-c4cccs4)n3n2)cc(OC)c1OC` (stereo not shown) [Example 294], the “EC20 (concentration necessary for suppressing 20% of the expression level of MHC class I molecules)” value was 70 nM.
`CC(NC(=O)Nc1nc2nccc(-c3cccs3)n2n1)c1ccc2c(c1)OCO2` (stereo not shown) [Example 295] was tested, and the “EC20 (concentration necessary for suppressing 20% of the expression level of MHC class I molecules)” value was 790 nM.
`COc1ccc(-c2ccnc3nc(NC(=O)NC(C)c4cc(OC)c(OC)c(OC)c4)nn23)cc1` (stereo not shown) [Example 296] was tested, and the “EC20 (concentration necessary for suppressing 20% of the expression level of MHC class I molecules)” value was 70 nM.
In the case of `COc1ccc(-c2ccnc3nc(NC(=O)NC(C)c4ccc5c(c4)OCO5)nn23)cc1` (stereo not shown) [Example 297], the “EC20 (concentration necessary for suppressing 20% of the expression level of MHC class I molecules)” value was 110 nM.
For `COc1ccc(-c2ccnc3nc(NC(=O)NC(C)CCN(C)C(=O)C(C)(C)OC(C)=O)nn23)cc1` (stereo not shown) [Example 298], the “EC20 (concentration necessary for suppressing 20% of the expression level of MHC class I molecules)” value was 80 nM.
For `CC(=O)OC(C)(C)C(=O)N(C)CCC(C)NC(=O)Nc1nc2nccc(-c3cccs3)n2n1` (stereo not shown) [Example 299], the “EC20 (concentration necessary for suppressing 20% of the expression level of MHC class I molecules)” value was 430 nM.
`CC(NC(=O)Nc1nc2nccc(-c3ccc4c(c3)OCO4)n2n1)c1ccc2c(c1)OCO2` (stereo not shown) [Example 301] was tested, and the “EC20 (concentration necessary for suppressing 20% of the expression level of MHC class I molecules)” value was 640 nM.
With `COc1cc(C(C)NC(=O)Nc2nc3nccc(-c4ccc5c(c4)OCO5)n3n2)cc(OC)c1OC` (stereo not shown) [Example 302, 1-[7-(3,4-methylenedioxyphenyl)-[1,2,4]triazolo[1,5-a]pyrimidin-2-yl]-3-[1-(3,4,5-trimethoxyphenyl)ethyl]urea] the “EC20 (concentration necessary for suppressing 20% of the expression level of MHC class I molecules)” value was 180 nM.
With `COc1cccc([C@H](C)NC(=O)Nc2nc3nccc(-c4cccc(Cl)c4)n3n2)c1` [Example 303] the “EC20 (concentration necessary for suppressing 20% of the expression level of MHC class I molecules)” value was 680 nM.
In the case of `COc1cc(C(C)NC(=O)Nc2nc3nccc(-c4cccc(Cl)c4)n3n2)cc(OC)c1OC` (stereo not shown) [Example 305], the “EC20 (concentration necessary for suppressing 20% of the expression level of MHC class I molecules)” value was 520 nM.
For `CC(NC(=O)Nc1nc2nccc(-c3cccc(OCc4cccnc4)c3)n2n1)c1ccc2c(c1)OCO2` (stereo not shown) [Example 306], the “EC20 (concentration necessary for suppressing 20% of the expression level of MHC class I molecules)” value was 230 nM.
With `COc1cc(C(C)NC(=O)Nc2nc3nccc(-c4cccc(OCc5cccnc5)c4)n3n2)cc(OC)c1OC` (stereo not shown) [Example 307] the “EC20 (concentration necessary for suppressing 20% of the expression level of MHC class I molecules)” value was 140 nM.
For `COc1cccc([C@H](C)NC(=O)Nc2nc3nccc(-c4cc(OC)c(OC)c(OC)c4)n3n2)c1` [Example 308], the “EC20 (concentration necessary for suppressing 20% of the expression level of MHC class I molecules)” value was 760 nM.
For `CC(CCCC(C)(C)O)NC(=O)Nc1nc2nccc(-c3cccc(OCc4cccnc4)c3)n2n1` (stereo not shown) [Example 313, 1-(5-hydroxy-1,5-dimethylhexyl)-3-{7-[3-(pyridin-3-ylmethoxy)phenyl]-[1,2,4]triazolo[1,5-a]pyrimidin-2-yl}urea], the “EC20 (concentration necessary for suppressing 20% of the expression level of MHC class I molecules)” value was 290 nM.
